# Results from publication PMC7321301, “Characteristics of New Peptides GQLGEHGGAGMG, GEHGGAGMGGGQFQPV, EQGFLPGPEESGR, RLARAGLAQ, YGNPVGGVGH, and GNPVGGVGHGTTGT as Inhibitors of Enzymes Involved in Metabolic Syndrome and Antimicrobial Potential” (Molecules, 2020).
# Read-outs that look alike come from different tables or passages of the source. No end group written: not given here.
# Legend:
# Format in all cases: biochemical
# [1] = target: T1, α-amylase from hog pancreas (Sus scrofa, UniProt P00690); test: α-amylase inhibitory activity (starch, DNS) and kinetics
# T1 construct: α-amylase from hog pancreas (50 U/mg); from tissue; host or cells: hog pancreas
# T1 sequence (P00690 16-511): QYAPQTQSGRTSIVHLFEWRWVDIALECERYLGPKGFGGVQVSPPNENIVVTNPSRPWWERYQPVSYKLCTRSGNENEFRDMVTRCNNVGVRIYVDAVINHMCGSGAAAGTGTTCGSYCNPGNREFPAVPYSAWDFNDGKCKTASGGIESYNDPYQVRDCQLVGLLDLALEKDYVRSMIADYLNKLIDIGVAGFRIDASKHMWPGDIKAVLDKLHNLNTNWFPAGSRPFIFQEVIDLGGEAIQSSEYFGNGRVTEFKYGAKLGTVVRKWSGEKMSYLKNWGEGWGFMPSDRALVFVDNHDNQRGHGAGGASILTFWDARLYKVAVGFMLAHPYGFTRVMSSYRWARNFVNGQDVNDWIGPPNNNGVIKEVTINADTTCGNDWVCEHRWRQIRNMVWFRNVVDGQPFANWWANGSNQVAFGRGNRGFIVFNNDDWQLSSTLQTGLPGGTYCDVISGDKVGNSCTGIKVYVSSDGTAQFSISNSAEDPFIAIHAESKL
# Protocol: For all inhibitory activity, IC50 was calculated. […] The IC50 value was calculated from the plotted graph of the inhibition activity for the five different peptide concentrations. […] To measure the α-amylase inhibitory activity, a mixture of 25 μL of α-amylase solution and 25 μL of sample was first incubated at 40 °C for 5 min. Then, 50 μL of 1% (w/v) soluble starch (dissolved in 100 mM phosphate buffer containing 6 mM NaCl, pH 7) was added. After 10 min, the reaction was stopped by adding 100 μL of 3,5-dinitrosalicylic acid (DNS) and heating for 10 min. Then, the mixture was made up to 300 μL with double distilled water. After that, the absorbance at 540 nm was measured using BioTek Microplate Readers (EpochTM 2 BioTek, Bad Friedrichshall, Germany). The final results were compared with the activity of the same amount of enzyme without the inhibitor. All assays were carried out in triplicate. For IC50 value determination, the inhibitory activity for […] of samples was investigated. […] The kinetic parameters were evaluated by Lineweaver-Burk's method. The reaction conditions were the same as in the enzyme inhibitory activity assay.
# COX-2 = target: T2, COX-2 (Homo sapiens, UniProt P35354); test: COX-2 inhibitory activity (COX Activity Assay kit) and kinetics; conditions: mean ± SD, triplicate
# T2 construct: purchased Cayman Chemical 760151
# T2 sequence (P35354 18-604): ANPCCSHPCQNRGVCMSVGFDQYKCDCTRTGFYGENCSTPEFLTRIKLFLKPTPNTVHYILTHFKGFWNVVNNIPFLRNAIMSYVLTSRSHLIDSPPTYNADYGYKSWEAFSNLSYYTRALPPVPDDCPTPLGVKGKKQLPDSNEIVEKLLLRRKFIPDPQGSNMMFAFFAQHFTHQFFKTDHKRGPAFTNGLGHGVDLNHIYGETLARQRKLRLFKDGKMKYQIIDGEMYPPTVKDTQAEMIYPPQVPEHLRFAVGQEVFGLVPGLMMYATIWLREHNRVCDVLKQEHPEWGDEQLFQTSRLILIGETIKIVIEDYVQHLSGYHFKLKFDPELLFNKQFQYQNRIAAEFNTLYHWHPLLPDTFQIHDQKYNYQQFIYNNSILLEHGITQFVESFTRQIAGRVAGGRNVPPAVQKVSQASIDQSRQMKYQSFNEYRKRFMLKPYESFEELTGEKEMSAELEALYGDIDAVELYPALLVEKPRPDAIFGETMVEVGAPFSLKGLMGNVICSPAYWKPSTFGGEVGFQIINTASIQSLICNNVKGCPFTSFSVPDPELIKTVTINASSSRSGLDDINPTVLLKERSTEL
# Protocol: (§1) For all inhibitory activity, IC50 was calculated. The IC50 value defined as the concentration of the extract inhibiting 50% of the enzyme activity was determined by measuring the enzyme inhibitory activity and peptide contents in each sample. The IC50 value was calculated from the plotted graph of the inhibition activity for the five different peptide concentrations.
# The effect of the peptide on COX-1 and COX-2 was measured using the COX Activity Assay kit from Cayman Chemical (Item No. 760151, Ann Arbor, MI, USA). COX activity was determined according to the instructions provided with the kit. The enzyme activity was assayed by calorimetric measurement of the appearance of oxidized N,N,N′,N′-Tetramethyl-p-phenylenediamine (TMPD) at 590 nm using BioTek Microplate Readers (Epoch™ 2 BioTek, Bad Friedrichshall, Germany).
# (§2) Substrate solutions (5.0, 10.0, 15.0, and 20.0 mM) were prepared and used to determine the Michaelis constant (Km), the inhibition constant (Ki), and the maximum velocity (Vmax) of enzymes. The kinetic parameters were evaluated by Lineweaver–Burk’s method. The reaction conditions were the same as in the enzyme inhibitory activity assay.
# LOX = LOX (Glycine max, UniProt P08170); conditions: read-out: IC50 LOX
# Chain of LOX (P08170 whole entry): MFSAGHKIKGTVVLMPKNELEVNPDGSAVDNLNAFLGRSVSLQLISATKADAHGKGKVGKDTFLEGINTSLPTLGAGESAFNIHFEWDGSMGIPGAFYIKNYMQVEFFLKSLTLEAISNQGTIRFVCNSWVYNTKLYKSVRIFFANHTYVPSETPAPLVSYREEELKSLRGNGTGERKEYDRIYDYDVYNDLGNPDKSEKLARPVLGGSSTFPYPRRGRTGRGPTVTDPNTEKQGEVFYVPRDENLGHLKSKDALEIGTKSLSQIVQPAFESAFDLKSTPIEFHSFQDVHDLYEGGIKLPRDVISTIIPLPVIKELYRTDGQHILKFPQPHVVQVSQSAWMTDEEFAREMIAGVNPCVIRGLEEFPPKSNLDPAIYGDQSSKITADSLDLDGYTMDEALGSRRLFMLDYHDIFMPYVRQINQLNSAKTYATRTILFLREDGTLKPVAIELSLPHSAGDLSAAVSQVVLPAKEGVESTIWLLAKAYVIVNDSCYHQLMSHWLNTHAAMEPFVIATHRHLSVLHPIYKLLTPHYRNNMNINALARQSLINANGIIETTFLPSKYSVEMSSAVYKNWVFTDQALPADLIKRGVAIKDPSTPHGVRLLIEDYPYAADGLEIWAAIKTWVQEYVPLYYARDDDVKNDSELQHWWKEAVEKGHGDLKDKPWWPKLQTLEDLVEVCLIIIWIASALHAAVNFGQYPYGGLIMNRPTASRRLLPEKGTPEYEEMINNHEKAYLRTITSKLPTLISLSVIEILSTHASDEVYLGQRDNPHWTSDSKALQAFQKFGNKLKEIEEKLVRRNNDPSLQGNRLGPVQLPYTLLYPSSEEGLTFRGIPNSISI
# Protocol: as §1
# The LOX inhibitory assay was carried out with the method described by Szymanowska et al.. A solution of pure linoleic acid was used as a substrate. First, 157.2 µl of pure linoleic acid was mixed with 157.2 µL of Tween-20 and 10 mL of deionized water. The substrate was clarified with 1 mL of 1 M NaOH and M/15 phosphate buffer pH = 7.0 was added to the volume of 200 mL. The enzymatic reaction mixture contained 297 µL of M/15 phosphate buffer pH = 7, 2 µl of the substrate solution, and 1 µL of the enzyme solution. A mixture of 298 µl of phosphate buffer (pH 7.0) and 2 µL of the substrate solution was used to calibrate the spectrophotometer. Changes in absorbance at 234 nm were measured using BioTek Microplate Readers.
# as §2
# [2] = target: angiotensin converting enzyme (ACE) (Homo sapiens, UniProt P12821); test: ACE inhibitor activity (HHL substrate, OPA) and kinetics; conditions: mean ± SD, triplicate; nd = not detected
# Chain of angiotensin converting enzyme (ACE) (P12821 30-1306, species assumed): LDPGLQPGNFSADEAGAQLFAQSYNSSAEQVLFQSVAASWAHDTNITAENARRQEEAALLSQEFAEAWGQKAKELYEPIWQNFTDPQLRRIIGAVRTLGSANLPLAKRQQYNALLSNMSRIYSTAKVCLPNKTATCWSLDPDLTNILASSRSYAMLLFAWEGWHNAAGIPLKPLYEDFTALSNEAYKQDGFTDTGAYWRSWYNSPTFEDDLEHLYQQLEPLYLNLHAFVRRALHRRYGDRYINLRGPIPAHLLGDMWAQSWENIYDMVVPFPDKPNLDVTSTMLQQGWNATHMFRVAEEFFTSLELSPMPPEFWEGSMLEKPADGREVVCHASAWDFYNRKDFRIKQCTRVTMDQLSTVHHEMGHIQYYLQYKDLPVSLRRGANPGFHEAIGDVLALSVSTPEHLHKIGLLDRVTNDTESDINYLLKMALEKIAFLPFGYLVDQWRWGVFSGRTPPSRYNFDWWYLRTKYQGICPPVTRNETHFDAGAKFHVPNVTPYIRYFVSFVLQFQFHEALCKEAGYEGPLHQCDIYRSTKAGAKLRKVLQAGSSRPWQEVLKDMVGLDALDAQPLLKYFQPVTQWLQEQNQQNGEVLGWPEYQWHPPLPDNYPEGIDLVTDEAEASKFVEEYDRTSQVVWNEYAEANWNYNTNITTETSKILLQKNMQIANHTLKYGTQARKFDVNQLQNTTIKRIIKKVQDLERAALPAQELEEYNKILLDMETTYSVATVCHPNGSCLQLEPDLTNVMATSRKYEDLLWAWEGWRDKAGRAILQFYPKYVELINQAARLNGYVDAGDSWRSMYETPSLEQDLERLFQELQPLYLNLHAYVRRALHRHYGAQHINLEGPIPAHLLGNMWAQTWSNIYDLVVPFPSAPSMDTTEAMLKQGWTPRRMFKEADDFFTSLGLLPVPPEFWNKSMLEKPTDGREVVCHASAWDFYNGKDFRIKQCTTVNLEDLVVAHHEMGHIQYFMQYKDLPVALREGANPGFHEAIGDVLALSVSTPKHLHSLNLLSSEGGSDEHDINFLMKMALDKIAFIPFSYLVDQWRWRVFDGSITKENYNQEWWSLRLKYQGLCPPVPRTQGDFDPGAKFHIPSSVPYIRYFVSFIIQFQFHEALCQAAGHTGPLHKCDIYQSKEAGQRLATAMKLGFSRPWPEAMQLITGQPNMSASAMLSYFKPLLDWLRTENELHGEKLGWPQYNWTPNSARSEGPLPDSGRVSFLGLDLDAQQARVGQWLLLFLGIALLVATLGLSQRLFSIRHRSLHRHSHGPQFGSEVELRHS
# Protocol: as §1
# The angiotensin converting enzyme was prepared according to the method described by Karaś et al.. For ACE inhibitor activity, 5 μL of ACE was mixed with 5 μL of the samples and, after preincubation at 37 °C for 5 min, 5 μL of a 5 mM N-Hippuryl-L-histidyl-L-leucine (HHL) solution was added. The reaction was carried out at 37 °C for 60 min. Next, 0.1 M borate buffer with 0.2 M NaOH and 70 μL of an o-phthaldialdehyde OPA solution (20 mg/mL OPA in methanol) were added. The absorbance at 390 nm was measured using BioTek Microplate Readers ([…]).
# as §2
Sequence,IC50 [1],IC50 (COX-2),IC50 (LOX),IC50 [2],"IC50 (LOX; mean ± SD, triplicate)",IC50 ACE [2]
"GEHGGAGMGGGQFQPV [GV-16, GEHGGAGMGGGQFQPV]",44.6 µM,30.2 µM,68.5 µM,490 µM,–,–
"GNPVGGVGHGTTGT [GT-14, GNPVGGVGHGTTGT]",50 µM,3.66 µM,153 µM,434 µM,–,–
"YGNPVGGVGH [YH-10, YGNPVGGVGH]",80.3 µM,16.2 µM,127 µM,522 µM,–,–
"GQLGEHGGAGMG [GG-12, GQLGEHGGAGMG]",53 µM,15.7 µM,131 µM,525 µM,–,–
"EQGFLPGPEESGR [ER-13, EQGFLPGPEESGR]",51.1 µM,3.07 µM,60.1 µM,457 µM,–,–
"RLARAGLAQ [RQ-9, RLARAGLAQ]",69.9 µM,4.99 µM,–,–,205 µM,no inhibitory effect
